In one experiment the test system is cyclophilin A (CypA). The settings on record: cell free assay; cited from earlier work.
A further experiment addresses FK506-binding protein 12 (human, UniProt P62942 1-108). Briefly: fluorescence polarisation. In general terms: In fluorescence polarisation assays a small probe gives low polarisation when free and higher when bound to something large.

Non-standard residues stand in square brackets, D forms with d. *: point of attachment. Dkb = 3,3-dimethyl-2-ketobutyryl, CC(C)(C)C(=O)C(=O)*; Pip = O=C(O)[C@@H]1CCCCN1

Sequence of FK506-binding protein 12 (P62942 whole entry): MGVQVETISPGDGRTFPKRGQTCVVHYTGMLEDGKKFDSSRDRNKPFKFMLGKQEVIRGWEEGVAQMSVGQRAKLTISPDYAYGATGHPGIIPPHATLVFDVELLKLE

For `CC[C@H]1C[C@H](C)[C@@]2(NC1=O)O[C@@H](C[C@H](O)[C@@H](C)CC/C=C/C=C(\C)[C@@H]1C/C=C/C=C/[C@H](O)[C@H](C)[C@@H](O)[C@@H](CCC(C)=O)C(=O)N[C@@H](C(C)C)C(=O)N[C@@H](Cc3cccc(O)c3)C(=O)N3CCC[C@H](N3)C(=O)O1)[C@H](C)[C@H](O)[C@@H]2C` [Sanglifehrin A], the IC50 (as a rule, the concentration needed to halve the response being measured) in the experiment on cyclophilin A (CypA) was ~7 nM.

B1: rapalog 2i (peptide)
chain: cyclo(AA[dA][Dkb][Pip][dI]Q)
modifications: also: Dkb 4 joined by ester to 3
For the molecule B1, the IC50 with FK506-binding protein 12 stood at 266 µM.
